# Tests used:
# [1] = system: FOXP3 positive cells (CD25+ splenic cells); assay: Foxp3 and Ki67 flow cytometric analysis of Treg proliferation; assay type: cell-based, murine
# Description: To determine the effect of IGF-1 in the regulatory subset in vitro (cf. FIG. 4) the number of FOXP3 positive cells is determined by flow cytometric analysis. To analyze other subsets, like the proinflammatory Th1 and Th17 subsets, a similar approach is used but the number of interferon-gamma (Th1) and IL-17 (Th17) positive cells is determined. Additionally, to evaluate the number of proliferating cells at a given moment cells are stained using the intracellular marker Ki67, which is expressed only in cycling cells. The combination of a specific lineage marker (e.g., Foxp3, IFN-g, IL-17) with Ki67 allows for the determination at a given moment of the cells belonging to a certain subset and their proliferative status.
# In animal experiments, the population is isolated normally from murine spleen (but also could be isolated from other tissues, like for example but not restricted to bone marrow, adipose tissue, cord blood derived mononuclear cell, thymus, or peripheral blood) and is sorted using different markers (e.g., CD4 and CD25). This population is defined as CD4+CD25+ and includes the regulatory cells. This population is then treated in the above-mentioned medium in the presence of IGF-1. After several days of culture part of the cells are counted, fixed, permeabilized and analyzed by flow cytometry using an anti-FOXP3 antibody in combination with the same extracellular markers (CD4 and CD25). This allows for the determination of the absolute number of FOXP3 positive cells present in the culture.
# To further define the proliferative effects of IGF-1, FACS-sorted CD25+ splenic cells (>98% purity) after two days in culture with recombinant IGF-1 were fixed, permeabilized and stained with antibodies against FOXP3 and Ki67. Foxp3 is a transcription factor that orchestrates the cellular and molecular programs involved in T regulatory function. Ki67 is a nuclear antigen present in proliferating cells. […] After three days of culture the number of FOXP3 positive cells was increased four-fold and the number of regulatory T cells proliferating approximately six-fold.
# [2] = system: CD4+CD25+ splenic cells; assay: flow cytometry of activation and homing markers on CD4+CD25+ splenic cells; assay type: cell-based, murine; conditions: Deguelin 1 μM; Ly-294,002 and PD.98,059 10 μM (FIG. 10)
# Source text: The expression of certain markers on the surface of the cell is correlated with the degree of activation of the cells and also controls their trafficking and localization and consequently the compartmentalization of the immune responses. This is again measured using flow cytometric methods. For example, cells expressing high levels of CD62L preferentially migrate to secondary lymphoid tissues. However, as these cells enter the periphery (for example when they travel to affected tissues during an autoimmune process) they rapidly acquire an activated phenotype and express higher levels of CD44. Thus upregulation of CD44 is associated with a higher proliferation rate. […] The importance of this observation comes from the fact that in order to exert their suppressive properties, Tregs need to migrate to the affected tissues first. Therefore, IGF-1 not only induces activation of proliferation but also promotes their correct localization.
# Finally, the inventors analyzed the ability of IGF-1 to alter the homing properties of the regulatory T cell subset. In 2003, Fisson et al. defined two distinct population of regulatory T cells in homeostatic conditions. In the steady state, some Tregs remain quiescent for long periods of time, whereas the other Treg population divides extensively and express multiple activation markers. […] This pattern of change is also consistent with a more activated phenotype. On one hand, CD44^hiCD62L^lo Treg populations, but not their CD44^loCD62L^hi counterparts, constantly incorporate BrdU, a synthetic analog of thymidine, into newly synthesized DNA in lymphoid tissues (Matsushima and Takashima, 2010). On the other hand, higher levels of CD62L have been associated with a higher capacity of Tregs to migrate to the lymph nodes, while lower levels allows them to migrate to sites of inflammation (Fisson et al., 2003; Bromley et al., 2008). Thus, T regulatory cells expressing lower levels of CD62L would have a higher inflammation-seeking capacity, which has been associated with higher suppressive potential in various inflammation models (Huehn et al., 2005). […] One, IGF-1 is able to activate a complex pathway resulting in Treg activation leading to proliferation and to selective homing and migration to the sites of inflammation. The second conclusion comes from the observation that sequential migration from blood to the target tissue and then to draining lymph nodes is required for nTreg to differentiate and execute fully their suppressive function, by inhibiting dendritic cells in the peripheral tissue and T effector cell responses in dLN and periphery (Zhang et al., 2009). Thus, IGF-1 treatment not only results in higher numbers of T regulatory cells but also in altering the trafficking of these cells to achieve a higher suppressive effect. […]
SMILES,effect of inhibitor on IGF-1 effect on Treg proliferation ([1]; inhibitor 1 μM),sensitivity of IGF-1 induced CD62L and CD44 changes to pathway inhibitor [2],effect of inhibitor on IGF-1 effect on Treg proliferation ([1]; inhibitor 10 μM)
"COc1cc2c(cc1OC)[C@@H]1C(=O)c3ccc4c(c3O[C@@H]1CO2)C=CC(C)(C)O4 [Deguelin, reference compound]",partially blocked,more sensitive,
"COc1cccc(-c2cc(=O)c3ccccc3o2)c1N [PD.98,059, reference compound]",,,partially blocked
"O=c1cc(N2CCOCC2)oc2c(-c3ccccc3)cccc12 [Ly-294,002, reference compound]",,,sensitive
